Measurements from patent publication US6514997B2, “Antipicornaviral compounds and compositions, their pharmaceutical uses, and materials for their synthesis” (Agouron Pharmaceuticals, Inc., priority 1999, dated 2003).
Read-outs that look alike come from different tables or passages of the source.

How the values were obtained:
H1-HeLa cells = assay: Cytotoxicity (CC50) in mock-infected H1-HeLa cells, XTT dye reduction; type: cell-based, human
Outline: (§1)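 XTT dye reduction (formazan, 450/650 nm) in H1-HeLa cells, mock-infected, gave CC50.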

[1] = as above; type: cell-based, human; conditions: human, H1-HeLa cells, mock-infected; line of HRV-14
Outline: as §1

[2] = tested on: strains of human rhinovirus (HRV); assay: Antirhinoviral H1-HeLa cell culture assay (XTT cell protection, EC50), other HRV strains; type: cell-based, human rhinovirus in H1-HeLa cells
Outline: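 Protection of H1-HeLa cells from rhinovirus was scored two days post-infection via XTT dye reduction read at 450/650 nm, alongside mock-infected cells for toxicity. CC50/EC50 gives the therapeutic index.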

HRV-14 = assay: Antirhinoviral H1-HeLa cell culture assay (XTT cell protection, EC50), HRV-14; type: cell-based, human rhinovirus (HRV) serotype-14 in H1-HeLa cells; conditions: Rhinovirus B, HRV14, H1-HeLa
Outline: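 XTT dye reduction (450/650 nm) measured survival of H1-HeLa cells two days after HRV-14 infection at m.o.i. 0.13 in the presence of compound, giving EC50. The therapeutic index is CC50 divided by EC50.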

[3] = target: T1, Recombinant rhinovirus 3C protease, serotype 14 (Human rhinovirus 14, UniProt P03303); assay: Inhibition of rhinovirus 3C protease (FRET assay, kobs/[I]), serotype 14; type: biochemical; conditions: pH 7.6; HRV-14; read-out: kobs/[I] (3C protease inhibition activity)
T1 construct: Recombinant rhinovirus 3C proteases; made in house
Outline: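 kobs/[I] values came from progress curves of reactions started by adding 50-100 nM protease to buffer (50 mM tris pH 7.6, 1 mM EDTA, 2% DMSO) containing compound and ~1 μM quenched DABCYL-EDANS substrate. Rising EDANS fluorescence reported cleavage.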

[4] = Human rhinovirus sp., HRV3, H1-HeLa, HRV-3, read-out: EC50
[5] = Human rhinovirus sp., HRV9, H1-HeLa, HRV-9, read-out: EC50
[6] = Human rhinovirus sp., HRV16, H1-HeLa, HRV-16, read-out: EC50
[7] = Human rhinovirus sp., HRV25, H1-HeLa, HRV-25, read-out: EC50
[8] = Human rhinovirus sp., HRV39, H1-HeLa, HRV-39, read-out: EC50
[9] = Human rhinovirus sp., HRV87, H1-HeLa, HRV-87, read-out: EC50
[10] = H1-HeLa, HRV-1A, read-out: EC50
[11] = Human rhinovirus sp., HRV10, H1-HeLa, HRV-10, read-out: EC50
[12] = H1-HeLa, HRV-23, read-out: EC50
[13] = Human rhinovirus sp., H1-HeLa, HRV-Hanks, read-out: EC50
[14] = Human rhinovirus sp., HRV11, H1-HeLa, HRV-11, read-out: EC50
[15] = Human rhinovirus sp., HRV13, H1-HeLa, HRV-13, read-out: EC50
[16] = Human rhinovirus sp., HRV19, H1-HeLa, HRV-19, read-out: EC50
[17] = Human rhinovirus sp., HRV78, H1-HeLa, HRV-78, read-out: EC50

T1 sequence (P03303 1538-1719): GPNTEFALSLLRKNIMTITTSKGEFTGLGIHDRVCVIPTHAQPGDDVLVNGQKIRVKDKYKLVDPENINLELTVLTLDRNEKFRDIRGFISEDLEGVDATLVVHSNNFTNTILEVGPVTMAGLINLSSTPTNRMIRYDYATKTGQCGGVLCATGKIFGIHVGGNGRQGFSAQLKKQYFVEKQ

| Structure (SMILES) | CC50 (H1-HeLa cells; line of HRV-2) [µM] | CC50 (H1-HeLa cells; line of HRV-3) [µM] | CC50 (H1-HeLa cells; line of HRV-9) [µM] | CC50 (H1-HeLa cells; line of HRV-16) [µM] | CC50 (H1-HeLa cells; line of HRV-25) [µM] | CC50 (H1-HeLa cells; line of HRV-39) [µM] | CC50 (H1-HeLa cells; line of HRV-87) [µM] | CC50 at 2 days [1] [µM] | EC50 ([2]; H1-HeLa, HRV-2, read-out: EC50) [nM] | EC50 [2, 4] [nM] | EC50 [2, 5] [nM] | EC50 [2, 6] [nM] | EC50 [2, 7] [nM] | EC50 [2, 8] [nM] | EC50 (HRV-14) [nM] | kinact/KI [3] [M⁻¹ s⁻¹] | CC50 (H1-HeLa cells; line of HRV-1A) [µM] | CC50 (H1-HeLa cells; line of HRV-10) [µM] | EC50 [2, 10] [nM] | EC50 [2, 11] [nM] | also measured |
| --- | --- | --- | --- | --- | --- | --- | --- | --- | --- | --- | --- | --- | --- | --- | --- | --- | --- | --- | --- | --- | --- |
| CC[C@@H](C(=O)N[C@H](/C=C/C(=O)OC(C)(C)C)C[C@@H]1CCNC1=O)n1cccc(NC(=O)c2cc(C)on2)c1=O [Compound 34, trans-(2′S,3″″S,4S)-4-(2′-{3″-[(5′″-Methylisoxazole-3′″-carbonyl)amino]-2″-oxo-2″H-pyridin-1″-yl}butyrylamino)-5-(2″″-oxopyrrolidin-3″″-yl)pent-2-enoic Acid tert-Butyl Ester] | > 10 | > 10 | > 10 | > 10 | > 10 | > 10 | > 10 | > 10 | 154 | 61 | 593 | 543 | 923 | 441 | 122 | 45100 |  |  |  |  | EC50 [2, 9]: 33 nM |
| CCOC(=O)/C=C/[C@H](C[C@@H]1CCNC1=O)NC(=O)[C@@H]1CCc2ccc(NC(=O)c3cc(C)on3)c(=O)n21 [Compound 37, trans-(3′S,3′″S,4S)-4-({6′-[(5″-Methylisoxazole-3″-carbonyl)amino]-5′-oxo-1′,2′,3′,5′-tetrahydroindolizine-3′-carbonyl}amino)-5-(2′″-oxopyrrolidin-3′″-yl)-pent-2-enoic Acid Ethyl Ester] | > 10 | > 10 | > 10 | > 10 | > 10 | > 10 | > 10 | > 10 | 37 | 43 | 121 | 72 |  | 16 | 162 | 177000 | > 10 | > 10 | 108 | 41 | EC50 ([2]; Human rhinovirus sp., HRV25, H1-HeLa): 162 nM; EC50 [2, 9]: 58 nM |
| CCOC(=O)/C=C/[C@H](C[C@@H]1CCNC1=O)NC(=O)[C@@H]1CCc2c(Cl)cc(NC(=O)c3cc(C)on3)c(=O)n21 [Compound 39, trans-(3′S,3′″S,4S)-4-({8′-Chloro-6′-[(5″-methylisoxazole-3″-carbonyl)amino]-5′-oxo-1′,2′,3′,5′-tetrahydroindolizine-3′-carbonyl}amino)-5-(2′″-oxopyrrolidin-3′″-yl)-pent-2-enoic Acid Ethyl Ester] | > 10 | > 10 | > 10 | > 10 | > 10 | > 10 | > 10 | > 10 | 16 | 39 | 48 | 57 | 107 | 48 | 40 | 200000 | > 10 | > 10 | 42 | 88 | EC50 [2, 9]: 17 nM |
| C#CC[C@@H](C(=O)N[C@H](/C=C/C(=O)OC1CCCC1)C[C@@H]1CCNC1=O)n1cccc(NC(=O)c2cc(C)on2)c1=O [Compound 40, trans-(2′S,3′″″S,4S)-4-[2′-(3″-{[1′″-(5″″-Methylisoxazol-3″″-yl)methanoyl]amino}-2′″-oxo-2′″H-pyridin-1′″-yl)pent-4″-ynoylamino]-5-(2′″″-oxopyrrolidin-3′″″-yl)pent-2-enoic Acid Cyclopentyl Ester] | > 10 | > 10 | > 10 | > 10 | > 10 | > 10 | > 10 | > 10 | 52 | 56 | 219 | 177 | 490 | 163 | 27 | 186000 |  |  |  |  | CC50 (H1-HeLa cells; line of HRV-11): > 10 µM; CC50 (H1-HeLa cells; line of HRV-13): > 10 µM; CC50 (H1-HeLa cells; line of HRV-19): > 10 µM; CC50 (H1-HeLa cells; line of HRV-23): > 10 µM; CC50 (H1-HeLa cells; line of HRV-78): > 10 µM; CC50 (H1-HeLa cells; line of HRV-Hanks): > 10 µM; EC50 [2, 12]: 55 nM; EC50 [2, 13]: 115 nM; EC50 [2, 14]: 6 nM; EC50 [2, 15]: 148 nM; EC50 [2, 16]: 60 nM; EC50 [2, 17]: 123 nM; EC50 [2, 9]: 83 nM |
| C#CC[C@@H](C(=O)N[C@H](/C=C(\C)C(=O)OCC)C[C@@H]1CCNC1=O)n1cccc(NC(=O)c2cc(C)on2)c1=O [Compound 44, trans-(2′S,3′″″S,4S)-2-Methyl-4-[2′-(3″-{[1′″-(5″″-methylisoxazol-3″″-yl)methanoyl]amino}-2′″-oxo-2′″H-pyridin-1′″-yl)pent-4″-ynoylamino]-5-(2′″″-oxopyrrolidin-3′″″-yl)pent-2-enoic Acid Ethyl Ester] | > 10 |  |  | > 10 | > 10 | > 10 |  | > 10 | 1180 |  |  | 1090 | 1220 | > 1000 | 1460 | 12500 |  | > 10 |  | 562 |  |
| Cc1cc(C(=O)Nc2cccn([C@@H](Cc3ccc(F)c(F)c3)C(=O)N[C@H](/C=C/C(=O)OC(C)(C)C)C[C@@H]3CCNC3=O)c2=O)no1 [Compound 46] | > 10 | > 10 | > 10 | > 10 | > 10 | > 10 |  | > 10 | 145 | 45 | 151 | 160 | 188 | 227 | 6 | 350000 | > 10 | > 10 | 182 | 135 | CC50 (H1-HeLa cells; line of HRV-11): > 10 µM; CC50 (H1-HeLa cells; line of HRV-13): > 10 µM; CC50 (H1-HeLa cells; line of HRV-19): > 10 µM; CC50 (H1-HeLa cells; line of HRV-23): > 10 µM; CC50 (H1-HeLa cells; line of HRV-78): > 10 µM; CC50 (H1-HeLa cells; line of HRV-Hanks): > 10 µM; EC50 [2, 12]: 11 nM; EC50 [2, 13]: 5 nM; EC50 [2, 14]: 3 nM; EC50 [2, 15]: 78 nM; EC50 [2, 16]: 20 nM; EC50 [2, 17]: 25 nM |
| Cc1cc(C(=O)Nc2cccn([C@@H](Cc3ccc(F)c(F)c3)C(=O)N[C@H](/C=C/C(=O)OC3CCCC3)C[C@@H]3CCNC3=O)c2=O)no1 [Compound 49, trans-(2′S,3″″″S,4S)-4-[3′-(3″,4″-Difluorophenyl)-2′-(3′″-{[1″″-(5′″″-methylisoxazol-3′″″-yl)methanoyl]amino}-2″″-oxo-2″″H-pyridin-1″″-yl)propanoylamino]-5-(2″″″-oxopyrrolidin-3″″″-yl)pent-2-enoic Acid Cyclopentyl Ester] | > 10 | > 10 | > 10 | > 10 | > 10 | > 10 |  | > 10 | 83 | 41 | 95 | 32 | 371 | 145 | 4 | 1.2e+06 | > 10 | > 10 | 131 | 76 |  |
| C#CC[C@@H](C(=O)N[C@H](/C=C/C(=O)OC(C)C)C[C@@H]1CCNC1=O)n1cccc(NC(=O)c2cc(C)on2)c1=O [Compound 50, trans-(2′S,3′″″S,4S)-4-[2′-(3″- {[1′″-(5″″-Methylisoxazol-3″″-yl)methanoyl]amino}-2′″-oxo-2′″H-pyridin-1′″-yl)pent-4″-ynoylamino]-5-(2′″″-oxopyrrolidin-3′″″-yl)pent-2-enoic Acid Isopropyl Ester] | > 10 | > 10 | > 10 | > 10 | > 10 | > 10 |  | > 10 | 105 | 117 | 122 | 185 | 371 | > 1000 | 68 | 100000 | > 10 | > 10 | 200 | 750 |  |
